Read-outs that look alike come from different tables or passages of the source.
Assays:
[1] = system: 3D human testicular organoids; assay: Drug toxicity test, CellTiter-Glo ATP viability, 3D testicular organoids; assay type: cell-based; settings: 48 hours exposure, ATP content
Method: Isolated human SSC, immortalized Sertoli cells, and immortalized Leydig cells at passage 5-6 were propagated in normal 6-well tissue culture plates to 80-90% confluency and passaged using trypsin EDTA (0.25%). Counted cells were pelleted and resuspended in a testicular organoid formation medium composed of normal StemPro®-34 (Invitrogen) SSC proliferation medium supplemented with 30% FBS, 1 μg/mL solubilized human testis extracellular matrix extract and 50 μg/mL Gentamycin. All three cell suspensions were combined together at a ratio of 8:1:1 and seeded into Perfecta3D® 96-well hanging drop plates (3D Biomatrix, Ann Arbor, Mich.) or GravityPLUS™ 96-well hanging drop plates (InSphero, Schlieren, Switzerland) at a density of 10,000 cells/40 μl drop volume. Following 48-72 hours of hanging drop culture, all testicular cell subtypes had amalgamated into compact organoids and were transferred into 96-well format Corning® Costar® Ultra-low Attachment Multiwell U-bottom plates for long term culture (Sigma-Aldrich, St. Louis, Mo.). For long-term study, all testicular organoids were cultured inn normal StemPro®-34 SSC proliferation medium without human leukemia inhibitory factor (LIF) and supplemented with 1 μg/mL solubilized human testis extracellular matrix extract, 2 μM retinoic acid (Sigma-Aldrich), 2.5×10^−5 IU follicle-stimulating hormone (Sigma-Aldrich), 100 ng/mL recombinant human stem cell factor (SCF; PeproTech, Rocky Hill, N.J.), and 50 μg/mL Gentamycin. Culture medium was refreshed every 4 days. All testicular organoids were cultured at 34° C. and 5% CO2.
(§1) For toxicity testing, cisplatin and etoposide were purchased from Santa Cruz Biotechnology (Dallas, Tex.) and stock solutions of 5 mM and 25 mM were made in 0.9% NaCl and DMSO, respectively. Doxorubicin was purchased from Sigma-Aldrich, (St. Louis, Mo.) and a stock solution was produced in diH2O at a concentration of 10 mM. Busulfan (24 mM) was purchased from Otsuka Pharmaceutical (Tokyo, Japan) and was diluted into medium immediately prior to use. The undifferentiated (just after formation, 2 days in culture) and differentiated (23 days in culture) organoids, as well as 2D cultured cells (at the same cell ratios and density of 3D organoids), were treated for 48 hours in 6 different concentrations of each drug (0.01, 0.1, 1, 10, 100 and 1000 μM) in vitro. After 48 hours, CellTiter-Glo® Luminescent Cell Viability assays were performed (Promega) on all conditions. Briefly, culture plates were removed from the incubator and equilibrated to room temperature for 30 minutes. To each well of the 96-well culture plate, 100 μl of CellTiter-Glo® reagent was added at a 1:1 ratio and plates were moved to an orbital shaker for 5 minutes to induce cell lysis. Plates were incubated at room temperature for 10 minutes to stabilize luminescent signal and read on a Veritas™ luminometer. Integration times of 1 second were used for all samples. All conditions were performed in triplicate and medium only control wells were read and subsequently used for background subtraction. IC50 values were determined using GraphPad Prism® 6 calculated via 4-parameter fit with a 95% confidence interval. All experimental conditions were repeated at least three times.
The use of human testicular organoids as a novel screening tool for reproductive toxicity was assess by exposing 3D organoids to four clinically relevant antimitotic chemotherapeutic drugs: busulfan, cisplatin, doxorubicin, and etoposide. To obtain IC50 values, undifferentiated (2 days in culture) and differentiated (23 days in culture) organoids were exposed to increasing concentrations of drugs for 48 hours. H&E staining as well as Live/Dead viability assays were performed on organoids following drug treatment (FIG. 7A and Figure B, respectively). Drug-treated organoids were harvested and further evaluated for toxicity by measuring ATP production (CellTiter-Glo®; Promega, Madison, Wis.). […]

[2] = system: 2D cultured cells (SSC, Sertoli, Leydig at the same cell ratios and density of 3D organoids); assay: Drug toxicity test, CellTiter-Glo ATP viability, 2D cultured testicular cells; assay type: cell-based, human; settings: 2D culture, 48 hours exposure, ATP content (CellTiter-Glo)
Method: as §1
The use of human testicular organoids as a novel screening tool for reproductive toxicity was assess by exposing 3D organoids to four clinically relevant antimitotic chemotherapeutic drugs: busulfan, cisplatin, doxorubicin, and etoposide. To obtain IC50 values, undifferentiated (2 days in culture) and differentiated (23 days in culture) organoids were exposed to increasing concentrations of drugs for 48 hours. H&E staining as well as Live/Dead viability assays were performed on organoids following drug treatment (FIG. 7A and Figure B, respectively). Drug-treated organoids were harvested and further evaluated for toxicity by measuring ATP production (CellTiter-Glo®; Promega, Madison, Wis.). Resulting viability was then used to establish IC50 values for organoid cultures (FIG. 7C).

[3] = Homo sapiens, differentiated organoids (23 days in culture), read-out: 3D IC50 Differentiated Organoids
[4] = Homo sapiens, undifferentiated organoids (2 days in culture), read-out: 3D IC50 Undifferentiated Organoids

| Structure (SMILES) | IC50 [1, 3] | IC50 [1, 4] | IC50 ([2]; Homo sapiens, Leydig) | IC50 ([1]; differentiated organoids (23 days in culture), read-out: 3D IC50 Differentiated Organoids) | IC50 ([1]; undifferentiated organoids (2 days in culture), read-out: 3D IC50 Undifferentiated Organoids) | IC50 [2] |
| --- | --- | --- | --- | --- | --- | --- |
| CS(=O)(=O)OCCCCOS(C)(=O)=O [Busulfan] | 906 µM | 830 µM | 328 µM | – | – | – |
| COc1cc([C@@H]2c3cc4c(cc3[C@@H](O[C@@H]3O[C@@H]5CO[C@@H](C)O[C@H]5[C@H](O)[C@H]3O)[C@H]3COC(=O)[C@H]23)OCO4)cc(OC)c1O [Etoposide] | 839 µM | 449 µM | 43.5 µM | – | – | – |
| N.N.[Cl][Pt][Cl] [Cisplatin] | – | – | – | 158 µM | 38.4 µM | 23.8 µM |
| COc1cccc2c1C(=O)c1c(O)c3c(c(O)c1C2=O)C[C@@](O)(C(=O)CO)C[C@@H]3O[C@H]1C[C@H](N)[C@H](O)[C@H](C)O1 [Doxorubicin] | 2.76 µM | 1.33 µM | 0.19 µM | – | – | – |
